Measured values: patent US9938261B2, “Heterocyclic compounds and methods of use thereof” (AMBIT BIOSCIENCES CORPORATION, priority 2011, dated 2018)
pIC50, pKd: −log10 of the molar value.

Experiments:
CSF1R [1] = target: T1, CSF1R (Homo sapiens, UniProt P07333); assay: HEK293 CSF1R phosphorylation MSD assay; assay type: cell-based; set-up: expressed in transfected cells; host or cells: HEK293; details: HEK293 cells, M-CSF stimulated CSF1R phosphorylation, MSD; read-out: HEK293 pCSF1R M-CSF MSD:IC50
Procedure, shortened: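 Ligand-induced CSF1R autophosphorylation was measured by MSD sandwich assay: CSF1R-FKBP from lysates captured via FK506, anti-phosphotyrosine readout. Cells were exposed to compound for 2 h (9-point, half-log, 0.5% DMSO) before 5 min 50 ng/mL M-CSF. Reported IC50 is the mean of duplicate-plate IC50s relative to DMSO control.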

PDGFRβ = target: T2, PDGFRβ (Homo sapiens, UniProt P09619); assay: Competition binding assay, PDGFRβ Kd; details: competition binding
T2 construct: made in house
Procedure, shortened: (§1)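 Kinases, either T7 phage fusions or HEK-293-expressed and DNA-tagged, competed with test compounds for immobilized biotinylated affinity ligand on streptavidin beads in binding buffer (20% SeaBlock, 0.17×PBS, 0.05% Tween 20, 6 mM DTT). After 1 hour at room temperature, bead-bound kinase was eluted and quantified by qPCR; Kd from eleven-point threefold dilutions.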

KIT = target: T3, KIT (Homo sapiens, UniProt P10721); assay: Competition binding assay, KIT Kd; details: competition binding
T3 construct: made in house
Procedure, shortened: as §1

[2] = target: kinase panel containing either 386 or 392 distinct kinases; assay: Kinase selectivity score S10 from competition binding panel; details: 10 μM, panel of 386 or 392 distinct kinases
Procedure, shortened: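 S10 is the number of kinases with percent-of-control under 10, divided by all distinct wild-type kinases tested, from a single 10 μM concentration. Binding measured by qPCR of kinase recovered from ligand-coated beads after 1 h equilibrium at room temperature; kinases were phage fusions or DNA-tagged HEK-293 products.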

CSF1R [3] = target: T1, CSF1R; assay: Competition binding assay, CSF1R Kd; set-up: made in house; details: competition binding
Procedure, shortened: as §1

T2 sequence (P09619 33-1106): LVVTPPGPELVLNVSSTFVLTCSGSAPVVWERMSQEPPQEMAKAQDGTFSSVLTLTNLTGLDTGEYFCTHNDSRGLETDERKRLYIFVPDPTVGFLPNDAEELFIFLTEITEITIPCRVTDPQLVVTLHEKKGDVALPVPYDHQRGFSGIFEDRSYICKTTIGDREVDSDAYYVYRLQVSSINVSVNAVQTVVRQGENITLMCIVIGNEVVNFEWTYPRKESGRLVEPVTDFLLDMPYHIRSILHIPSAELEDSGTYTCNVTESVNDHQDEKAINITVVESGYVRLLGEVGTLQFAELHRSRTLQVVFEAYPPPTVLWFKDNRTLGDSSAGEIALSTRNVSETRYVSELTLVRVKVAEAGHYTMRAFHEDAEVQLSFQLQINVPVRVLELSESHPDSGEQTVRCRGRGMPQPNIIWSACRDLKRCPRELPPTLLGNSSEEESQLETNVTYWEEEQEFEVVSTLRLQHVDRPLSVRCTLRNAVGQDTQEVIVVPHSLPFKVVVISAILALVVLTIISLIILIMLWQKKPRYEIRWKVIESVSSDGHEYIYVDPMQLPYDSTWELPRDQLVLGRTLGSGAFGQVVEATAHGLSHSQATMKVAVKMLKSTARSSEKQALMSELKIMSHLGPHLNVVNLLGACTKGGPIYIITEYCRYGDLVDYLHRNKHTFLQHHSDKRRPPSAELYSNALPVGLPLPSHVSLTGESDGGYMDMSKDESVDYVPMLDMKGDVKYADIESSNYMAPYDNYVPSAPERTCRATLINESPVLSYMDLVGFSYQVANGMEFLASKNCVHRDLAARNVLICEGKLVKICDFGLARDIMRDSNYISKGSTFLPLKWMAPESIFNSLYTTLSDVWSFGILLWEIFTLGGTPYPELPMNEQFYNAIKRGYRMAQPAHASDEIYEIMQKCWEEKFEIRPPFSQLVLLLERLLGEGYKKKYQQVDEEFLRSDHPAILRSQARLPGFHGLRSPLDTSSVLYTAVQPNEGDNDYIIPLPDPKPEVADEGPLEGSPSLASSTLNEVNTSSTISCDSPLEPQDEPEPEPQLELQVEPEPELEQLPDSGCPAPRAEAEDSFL
T1 sequence (P07333 20-972): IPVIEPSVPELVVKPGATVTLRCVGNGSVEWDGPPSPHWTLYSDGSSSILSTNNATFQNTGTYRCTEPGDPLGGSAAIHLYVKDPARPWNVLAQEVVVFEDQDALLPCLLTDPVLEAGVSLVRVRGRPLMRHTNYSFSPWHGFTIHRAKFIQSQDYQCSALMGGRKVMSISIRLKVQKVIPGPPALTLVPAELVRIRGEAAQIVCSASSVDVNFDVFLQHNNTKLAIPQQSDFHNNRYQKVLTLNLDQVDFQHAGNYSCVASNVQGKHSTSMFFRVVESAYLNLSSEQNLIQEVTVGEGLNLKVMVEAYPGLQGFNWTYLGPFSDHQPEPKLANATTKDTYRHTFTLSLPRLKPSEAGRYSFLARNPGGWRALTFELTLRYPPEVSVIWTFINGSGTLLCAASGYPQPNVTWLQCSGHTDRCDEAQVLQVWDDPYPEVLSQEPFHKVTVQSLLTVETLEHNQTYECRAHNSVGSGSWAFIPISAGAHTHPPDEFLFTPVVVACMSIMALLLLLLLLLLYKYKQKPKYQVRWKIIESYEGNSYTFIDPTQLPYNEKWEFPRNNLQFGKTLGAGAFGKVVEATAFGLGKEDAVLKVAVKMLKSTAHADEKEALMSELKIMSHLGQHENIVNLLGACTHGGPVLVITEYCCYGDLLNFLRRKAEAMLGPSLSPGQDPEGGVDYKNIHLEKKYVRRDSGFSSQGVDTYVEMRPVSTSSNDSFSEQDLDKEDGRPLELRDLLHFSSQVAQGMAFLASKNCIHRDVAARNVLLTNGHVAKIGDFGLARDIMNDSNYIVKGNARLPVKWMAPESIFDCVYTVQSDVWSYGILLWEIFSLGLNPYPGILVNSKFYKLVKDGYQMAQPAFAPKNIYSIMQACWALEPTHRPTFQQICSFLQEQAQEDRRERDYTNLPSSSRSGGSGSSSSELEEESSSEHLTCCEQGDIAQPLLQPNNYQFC
T3 sequence (P10721 26-976): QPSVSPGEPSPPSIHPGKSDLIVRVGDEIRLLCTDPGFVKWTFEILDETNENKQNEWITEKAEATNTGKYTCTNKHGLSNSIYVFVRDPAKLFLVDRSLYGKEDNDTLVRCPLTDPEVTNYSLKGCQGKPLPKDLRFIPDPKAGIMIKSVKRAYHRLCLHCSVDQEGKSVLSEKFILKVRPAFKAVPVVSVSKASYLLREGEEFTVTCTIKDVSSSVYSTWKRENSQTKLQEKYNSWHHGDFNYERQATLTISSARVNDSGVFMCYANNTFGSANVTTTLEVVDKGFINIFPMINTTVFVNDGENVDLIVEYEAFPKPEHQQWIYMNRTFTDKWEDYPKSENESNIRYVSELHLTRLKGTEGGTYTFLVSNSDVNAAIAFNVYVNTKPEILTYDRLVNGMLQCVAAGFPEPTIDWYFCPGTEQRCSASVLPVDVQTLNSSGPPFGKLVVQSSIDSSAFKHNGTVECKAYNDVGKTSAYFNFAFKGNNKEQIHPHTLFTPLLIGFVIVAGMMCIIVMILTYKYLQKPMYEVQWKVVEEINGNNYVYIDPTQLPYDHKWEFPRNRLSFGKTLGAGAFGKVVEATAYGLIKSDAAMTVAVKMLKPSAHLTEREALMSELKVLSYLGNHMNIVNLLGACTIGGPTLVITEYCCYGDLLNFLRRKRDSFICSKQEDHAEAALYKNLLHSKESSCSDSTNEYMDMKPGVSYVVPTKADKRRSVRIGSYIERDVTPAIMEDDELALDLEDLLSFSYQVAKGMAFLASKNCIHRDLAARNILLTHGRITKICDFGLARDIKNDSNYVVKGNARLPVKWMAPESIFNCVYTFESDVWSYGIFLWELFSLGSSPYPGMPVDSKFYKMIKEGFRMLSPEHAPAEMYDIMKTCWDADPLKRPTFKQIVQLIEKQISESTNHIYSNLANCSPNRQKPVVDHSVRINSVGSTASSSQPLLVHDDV

Structure (SMILES) | pIC50 (CSF1R [1]) | pKd (PDGFRβ) | pKd (KIT) | Kinase specificity S(10) [2] | pKd (CSF1R [3])
N#Cc1ccc2c(c1)ncn2Cc1ccc2nc(N[C@@H]3CCCC[C@H]3O)sc2c1 [Example 108, 1-((2-(((1R,2R)-2-hydroxycyclohexyl)amino)benzo[d]thiazol-6-yl)methyl)-1H-benzo[d]imidazole-5-carbonitrile] | 6.70 to 7.30 | 5.70 to 6.30 | 5.70 to 6.30 | A (A≤0.01) | 7.70 to 8.30
CC(C)(O)c1cnc2c(c1)ncn2Cc1ccc2nc(N[C@@H]3CCCC[C@H]3O)sc2c1 [Example 109, (1R,2R)-2-((6-((6-(2-hydroxypropan-2-yl)-3H-imidazo[4,5-b]pyridin-3-yl)methyl)benzo[d]thiazol-2-yl)amino)cyclohexanol] | 6.70 to 7.30 | 6.30 to 7.30 | 6.30 to 7.00 | A (A≤0.01) | 7.30 to 7.70
CC(=O)c1ccc2c(c1)ncn2Cc1ccc2nc(N[C@@H]3CCCC[C@H]3O)sc2c1 [Example 110, 1-(1-((2-(((1R,2R)-2-hydroxycyclohexyl)amino)benzo[d]thiazol-6-yl)methyl)-1H-benzo[d]imidazol-5-yl)ethanone] | ≥ 7.30 | 6.30 to 7.30 | 6.30 to 7.00 | A (A≤0.01) | ≥ 8.30
N#Cc1ccc2ncn(Cc3ccc4nc(N[C@@H]5CCCC[C@H]5O)sc4c3)c2c1 [Example 111, 1-((2-(((1R,2R)-2-hydroxycyclohexyl)amino)benzo[d]thiazol-6-yl)methyl)-1H-benzo[d]imidazole-6-carbonitrile] | 6.70 to 7.30 | 5.70 to 6.30 | 5.70 to 6.30 | A (A≤0.01) | 7.70 to 8.30
CS(=O)(=O)c1ccc2c(c1)ncn2Cc1ccc2nc(N[C@@H]3CCCC[C@H]3O)sc2c1 [Example 112, (1R,2R)-2-((6-((5-(methylsulfonyl)-1H-benzo[d]imidazol-1-yl)methyl)benzo[d]thiazol-2-yl)amino)cyclohexanol] | 6.30 to 6.70 | 5.70 to 6.30 | 5.70 to 6.30 | A (A≤0.01) | 7.30 to 7.70
CS(=O)(=O)c1ccc2ncn(Cc3ccc4nc(N[C@@H]5CCCC[C@H]5O)sc4c3)c2c1 [Example 113, (1R,2R)-2-((6-((6-(methylsulfonyl)-1H-benzo[d]imidazol-1-yl)methyl)benzo[d]thiazol-2-yl)amino)cyclohexanol] | 6.30 to 6.70 | < 5.70 | 5.70 to 6.30 | A (A≤0.01) | 7.30 to 7.70
O[C@@H]1CCCC[C@H]1Nc1nc2ncc(Cn3cnc4cccnc43)cc2s1 [Example 114, (1R,2R)-2-((6-((3H-imidazo[4,5-b]pyridine-3-yl)methyl)thiazolo[4,5-b]pyridine-2-yl)amino)cyclohexanol] | 6.70 to 7.30 | 5.70 to 6.30 | 6.30 to 7.00 | A (A≤0.01) | < 7.30
CC(O)c1cnc2c(c1)ncn2Cc1ccc2nc(N[C@@H]3CCCC[C@H]3O)sc2c1 (stereo partly drawn) [Example 115, (1R,2R)-2-((6-((6-((R,S)-1-hydroxyethyl)-3H-imidazo[4,5-b]pyridin-3-yl)methyl)benzo[d]thiazol-2-yl)amino)cyclohexanol] | 6.70 to 7.30 | 6.30 to 7.30 | 5.70 to 6.30 | A (A≤0.01) | < 7.30
N#Cc1ccn2c(Cc3ccc4nc(N[C@@H]5CCCC[C@H]5O)sc4c3)cnc2c1 [Example 117, 3-((2-(((1R,2R)-2-hydroxycyclohexyl)amino)benzo[d]thiazol-6-yl)methyl)imidazo[1,2-a]pyridine-7-carbonitrile] | < 6.30 | 6.30 to 7.30 | < 5.70 | A (A≤0.01) | 7.70 to 8.30

Further lines, results first:

pIC50 (CSF1R [1]) | pKd (PDGFRβ) | pKd (KIT) | Kinase specificity S(10) [2] | pKd (CSF1R [3]) | Structure (SMILES)
< 6.30 | – | 6.30 to 7.00 | A (A≤0.01) | 7.30 to 7.70 | O[C@@H]1CCCC[C@H]1Nc1nc2ccc(Cn3cnc4cncnc43)cc2o1 [Example 118, (1R,2R)-2-((6-((9H-purin-9-yl)methyl)benzo[d]oxazol-2-yl)amino)cyclohexanol]
6.70 to 7.30 | ≥ 7.30 | ≥ 7.00 | A (A≤0.01) | 7.70 to 8.30 | Cc1cc2ncn(Cc3ccc4nc(N[C@@H]5CCCC[C@H]5O)sc4c3)c2cc1C [Example 119, (1R,2R)-2-((6-((5,6-dimethyl-1H-benzo[d]imidazol-1-yl)methyl)benzo[d]thiazol-2-yl)amino)cyclohexanol]
6.70 to 7.30 | 6.30 to 7.30 | 6.30 to 7.00 | B (0.01<B≤0.02) | 7.70 to 8.30 | CC(=O)c1ccc2ncn(Cc3ccc4nc(N[C@@H]5CCCC[C@H]5O)sc4c3)c2c1 [Example 120, 1-(1-((2-(((1R,2R)-2-hydroxycyclohexyl)amino)benzo[d]thiazol-6-yl)methyl)-1H-benzo[d]imidazol-6-yl)ethanone]
6.70 to 7.30 | 6.30 to 7.30 | 6.30 to 7.00 | A (A≤0.01) | 7.70 to 8.30 | C#Cc1ccc2c(c1)ncn2Cc1ccc2nc(N[C@@H]3CCCC[C@H]3O)sc2c1 [Example 121, (1R,2R)-2-((6-((5-ethynyl-1H-benzo[d]imidazol-1-yl)methyl)benzo[d]thiazol-2-yl)amino)cyclohexanol]
6.70 to 7.30 | 6.30 to 7.30 | 6.30 to 7.00 | A (A≤0.01) | 7.70 to 8.30 | C#Cc1ccc2ncn(Cc3ccc4nc(N[C@@H]5CCCC[C@H]5O)sc4c3)c2c1 [Example 122, (1R,2R)-2-((6-((6-ethynyl-1H-benzo[d]imidazol-1-yl)methyl)benzo[d]thiazol-2-yl)amino)cyclohexanol]
6.70 to 7.30 | ≥ 7.30 | ≥ 7.00 | B (0.01<B≤0.02) | 7.70 to 8.30 | COc1nc2c(cc1Br)ncn2Cc1ccc2nc(N[C@@H]3CCCC[C@H]3O)sc2c1 [Example 123, (1R,2R)-2-((6-((6-bromo-5-methoxy-3H-imidazo[4,5-b]pyridin-3-yl)methyl)benzo[d]thiazol-2-yl)amino)cyclohexanol]
6.70 to 7.30 | ≥ 7.30 | ≥ 7.00 | B (0.01<B≤0.02) | 7.70 to 8.30 | N#Cc1cnc2c(c1)ncn2Cc1ccc2nc(N[C@@H]3CCCC[C@H]3O)oc2c1 [Example 124, 3-((2-(((1R,2R)-2-hydroxycyclohexyl)amino)benzo[d]oxazol-6-yl)methyl)-3H-imidazo[4,5-b]pyridine-6-carbonitrile]
6.70 to 7.30 | 6.30 to 7.30 | 5.70 to 6.30 | B (0.01<B≤0.02) | 7.70 to 8.30 | O[C@@H]1CCCC[C@H]1Nc1nc2ccc(Cc3cnc4cnccn34)cc2s1 [Example 125, (1R,2R)-2-((6-(imidazo[1,2-a]pyrazin-3-ylmethyl)benzo[d]thiazol-2-yl)amino)cyclohexanol]
≥ 7.30 | 6.30 to 7.30 | 6.30 to 7.00 | A (A≤0.01) | 7.70 to 8.30 | COc1nc2c(cc1C#N)ncn2Cc1ccc2nc(N[C@@H]3CCCC[C@H]3O)sc2c1 [Example 126, 3-((2-(((1R,2R)-2-hydroxycyclohexyl)amino)benzo[d]thiazol-6-yl)methyl)-5-methoxy-3H-imidazo[4,5-b]pyridine-6-carbonitrile]
